Laboratory results from ChEMBL document CHEMBL1145324, “Design, synthesis, and biochemical evaluation of novel cruzain inhibitors with potential application in the treatment of Chagas' disease” (Bioorg Med Chem Lett, 2006).

Target: Cruzipain (Trypanosoma cruzi, UniProt P25779)
Assay: Inhibition of Trypanosoma cruzi recombinant cruzain

Cruzipain, sequence (P25779 whole entry): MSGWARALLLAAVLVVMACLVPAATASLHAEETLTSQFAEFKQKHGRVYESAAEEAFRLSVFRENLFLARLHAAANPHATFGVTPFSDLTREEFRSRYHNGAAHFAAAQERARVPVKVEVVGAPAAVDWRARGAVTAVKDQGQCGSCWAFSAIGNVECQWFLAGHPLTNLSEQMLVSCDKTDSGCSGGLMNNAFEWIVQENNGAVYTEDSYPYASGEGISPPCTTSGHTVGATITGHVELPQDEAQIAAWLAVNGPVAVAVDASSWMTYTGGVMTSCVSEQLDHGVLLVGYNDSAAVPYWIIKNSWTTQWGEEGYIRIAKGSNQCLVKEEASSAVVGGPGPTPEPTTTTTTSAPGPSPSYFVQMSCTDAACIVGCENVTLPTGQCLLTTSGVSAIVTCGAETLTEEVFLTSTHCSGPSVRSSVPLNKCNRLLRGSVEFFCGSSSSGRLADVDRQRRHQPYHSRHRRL

Compound	IC50
NC(=S)N/N=C1/CCC(c2ccc(Br)cc2)C1 (configuration not stated)	> 5 µM
NC(=S)N/N=C1/CCCC(c2ccc(Br)cc2)C1 (configuration not stated)	> 7 µM
C=CC(=O)C1=CCCc2ccc(Br)cc21	0.8 µM
CC/C(=N\NC(N)=S)c1cccc(O)c1	> 33 µM
NC(=S)N/N=C1\CCOc2ccc(Br)cc21	0.11 µM
CC/C(=N\NC(N)=S)c1cccc(N)c1	> 3.64 µM

Second part, the molecule after the results:

IC50	Compound
> 20 µM	NC(=S)N/N=C1\CCS(=O)(=O)c2ccccc21
> 20 µM	C/C(=N/NC(N)=S)C1=CCCc2ccccc21
> 16 µM	NC(=S)N/N=C1\CCc2ccccc2O1
> 17 µM	NC(=S)N/N=C1\CCc2ccccc21
> 17 µM	NC(=S)N/N=C1\CCOc2ccccc21
1.36 µM	CC(=O)C1=CCCc2ccccc21
